Laboratory results as given in patent US6747008B1, “Methods for treating and preventing alopecia” (University of Southern California, priority 2000, dated 2004).
“Also recorded” adds a separate entry of the source. Where no end group is shown, it is not given here. [ ]: non-standard residue; d: D form. Nle = CCCC[C@H](N)C(=O)O

What was measured:
C57BL/6 mice = test: Hair cycle synchronized animal model, cyclophosphamide induced alopecia; format: in vivo, mouse; conditions: for mice with observable hair regrowth: day 13, 30 μg/kg/day, control 1 of 5; for percentage of the area with hair regrowth: day 13, FIG. 1; for number of mature hair follicles present: day 19, histology, FIG. 2
Text: Adolescent, 6- to 8-week-old female, C57BL/6 mice (Simonson, Gilroy, Calif.) with normal, black fur were purchased and housed in community cages with 12-hour light cycles with mouse chow and water ad libitum. In contrast to the mosaic cycling of human hair follicles, these mice display a unique hair cycle synchronization, which makes them a most productive model for hair research. Only mice in the resting stage of the hair cycle (telogen) are used for these studies. In the truncal skin of mice all melanocytes reside in hair follicles, and pigment production (melanogenesis) occurs exclusively in anagen follicles. Thus, telogen C57BL/6 mice can be recognized reliably by the homogeneously pink color of their back skin.
Predictable and highly synchronized anagen development can only be achieved with anagen induction by depilation, as opposed to spontaneous anagen development. Thus, anagen was induced in the back skin of telogen mice by depilation so that, at the start of pharmacological manipulation, all hair follicles in the depilated back skin area of all mice are in exactly the same stage of anagen development. As soon as anagen VI had been reached, all mice were injected once with a high dose of cyclophosphamide. In all experiments, control and test mice were then compared for signs of hair loss, for skin color changes indicating the effect of test drugs on hair cycling and follicle melanogenesis, and for hair regrowth.
Under ketamine hydrochloride-induced general anesthesia, telogen mice that had gone through several postnatal hair cycles were induced to enter anagen by depilation of all telogen hair shafts. This was done by applying a melted wax/rosin mixture to the back skin and by peeling off this mixture after hardening. By this technique, all depilated telogen hair follicles immediately begin to transform into anagen follicles with their associated melanogenesis.
As soon as early anagen VI had been reached by these induced anagen follicles, ie, on day 9 postdepilation (p.d.), a single intraperitoneal injection of cyclophosphamide was given (150 mg/kg).
Chemotherapy induced alopecia was manipulated pharmacologically by administration of the active agents of the present invention, topically or by subcutaneous injection once daily until necropsy. Pigmentation, hair regrowth, and follicle histology are analyzed as indicated. Particular attention is paid to any retarding or enhancing effects on the degree of alopecia, to the hair regrowth pattern, and to the pigmentation of regrowing hair shafts.
After the cyclophosphamide injection on day 9 p.d, the back skin of test and control mice were examined daily for a period of up to 32 days for signs of alopecia and color conversion from black to pink, indicating the progression of anagen follicles in the hair cycle via catagen to telogen. This color change results from the abrupt termination of melanogenesis in follicular melanocytes very early during catagen development. Visible changes were recorded and photodocumented. Starting 1 week after CYP injection, the skin was examined daily for signs of hair regrowth, skin repigmentation, and the quality of hair shaft pigmentation.
In C57BL/6 mice of this age group, depilation induced anagen follicles spontaneously enter catagen between days 17 and 20 p.d., mostly around day 18. The development of catagen follicles was indicated macroscopically by a change in skin color from black to light gray and occurs in large waves, appearing first in the neck region. then on the flanks, until finally the tail region enters catagen. Within 1 to 2 days after catagen induction, the follicle enters telogen, as indicated by a skin color change from gray to pink. […]

[1] = tested on: patients with newly diagnosed breast cancer receiving doxorubicin and cyclophosphamide; test: Phase I/II dose escalation study of AII(1-7) before and after chemotherapy; adverse event alopecia; format: in vivo, human; conditions: for incidents of alopecia associated with chemotherapy: breast cancer patients, doxorubicin 60 mg/m2 and cyclophosphamide 600 mg/m2, subcutaneous once daily
Protocol: Dose escalation within an individual patient was not permitted.
Following the rest period, a chemotherapy regimen containing doxorubicin 60 mg/m^2 and cyclophosphamide 600 mg/m^2 was initiated.
An adverse event (AE) was considered any unfavorable or unintended change in structure, function, signs, or symptoms temporally associated with the use of a medicinal product experienced by a person administered a pharmaceutical product, whether or not a causal relationship with the product has been established. During the conduct of this clinical trial, study personnel asked open-ended questions to obtain information about AEs at every visit. Signs and symptoms were graded by the Investigator using the WHO toxicity criteria. For alopecia, no notation was made if there was no hair loss. If there was hair loss, it was graded as mild (1) or pronounced (2). In this trial, the incidents of alopecia associated with chemotherapy were as follows: […]

Sprague Dawley rats = test: Full-thickness excision model, rat: hair follicle regeneration; format: in vivo; conditions: day 21, topical in 10% CMC or subcutaneous, not observed in placebo
Protocol: (§1) Materials: The viscous vehicle was prepared from carboxymethylcellulose (CMC sodium salt, low viscosity, Sigma, St. Louis, Mo., Lot Number 34H0310) consisting of 10% low viscosity CMC in 0.05 M phosphate buffer, pH. 7.2, and sterilized by autoclaving followed by mixing with sterile peptide solutions. For subcutaneous administration, the peptides were dissolved in Lactated Ringers' Solution. […] 9GD (SEQ ID NO:41) was prepared by the Microchemical Core Laboratory at USC.
(§2) Surgical model: During the experimental period, C57BL/Ksj-db/db diabetic mice (Jackson Laboratories, Cold Spring Harbor, Me.) or Sprague Dawley rats were housed one per cage and maintained in a central animal care facility with a 12-hour light/dark cycle. Water and standard rodent laboratory chow were supplied ad libitum. All animals used for this study received humane care as defined by the National Research Council's criteria for humane care. The study protocols were approved by the University of Southern California's Institutional Animal Care and Use Committee before initiation of the studies.
Rat Model: Female Sprague-Dawley rats, 175 to 200 grams, were anesthetized with intramuscular ketamine/rompun. The backs of the rats were shaved with animal clippers, scrubbed with betadine, and washed with 70% alcohol before surgery. […]

[2] = tested on: C57BL/Ksj-db/db diabetic mice; test: Full-thickness excision model, mouse: hair follicle regeneration; format: in vivo; conditions: day 26, topical in 10% CMC or subcutaneous, not observed in placebo
Protocol: as §1, §2
Mouse Model: On day 0, C57BL/Ksj-db/db diabetic mice were anesthetized with intramuscular ketamine/xylazine and backs were swabbed with 70% isopropyl alcohol followed by betadine. Afterwards, a 1.3 cm diameter full thickness skin area was excised on the back of each mouse. […]

[3] = Fragments tested for effectiveness (test not specified)

## Asp-Arg-Val-Tyr-Ile-His-Pro [AII(1-7)]
C57BL/6 mice
  mice with observable hair regrowth: 4 of 5
  percentage of the area with hair regrowth: significantly increased
  number of mature hair follicles present: increased
[1]
  incidents of alopecia associated with chemotherapy: 46%
[1]; chemotherapy patients
  effect on alopecia in chemotherapy patients relative to control: significantly decreased alopecia
Sprague Dawley rats
  microscopic examination of wound site: new adnexal structures (new hair follicles): formation of new adnexal structures
[2]
  microscopic examination of wound site: new adnexal structures (new hair follicles): formation of new adnexal structures

## DR(nor)YIHP (DR[Nle]YIHP) [Analogue 9GD]
C57BL/6 mice
  mice with observable hair regrowth: 5 of 5
  percentage of the area with hair regrowth: significantly increased
  number of mature hair follicles present: increased
Sprague Dawley rats
  microscopic examination of wound site: new adnexal structures (new hair follicles): formation of new adnexal structures
[2]
  microscopic examination of wound site: new adnexal structures (new hair follicles): formation of new adnexal structures

## His-Pro-Phe (HPF) [AII(6-8)]
[3]
  effectiveness: not to be effective

## Tyr-Ile-His-Pro-Phe (YIHPF) [AII(4-8)]
[3]
  effectiveness: not to be effective; also recorded: ineffective

B1: Filgratim: filgrastim (NEUPOGEN, Amgen, Inc.), comparator arm (protein, chains of the INN, looked up)
chain: MTPLGPASSLPQSFLLKCLEQVRKIQGDGAALQEKLCATYKLCHPEELVLLGHSLGIPWAPLSSCPSQALQLAGCLSQLHSGLFLYQGLLQALEGISPELGPTLDTLQLDVADFATTIWQQMEELGMAPALQPTQGAMPAFASAFQRRAGGVLVASHLQSFLEVSYRVLRHLAQP
[1]
  incidents of alopecia associated with chemotherapy: 40%
